The results in this text go back to EP2210885A1, “Substituted heteroarylpiperidine derivatives as melanocortin-4 receptor modulators” (Santhera Pharmaceuticals (Schweiz) AG, priority 2009, dated 2010).

For experiment [1], the target named is T1, hMC-4R (Homo sapiens, UniProt P32245).
T1 construct: expressed in transfected cells; host or cells: HEK293 cell membrane preparations
In words: hMC-4R functional assay (membrane based cAMP fluorescence polarization, agonistic activity). Format: biochemical. The note with it: cAMP produced compared to stimulation with NDP-alpha-MSH. On the procedure: Agonistic activity of human melanocortin receptors is determined in a homogeneous membrane based assay.
The test compound or unlabeled NDP-alpha-MSH is dispensed at varying concentrations to a 384 well microtiter plate. Membrane preparations from HEK293 cells expressing the human melanocortin receptors are added. After a short preincubation period, an appropriate amount of ATP, GTP and the cAMP antibody is added and the plate is further incubated before the fluorescence labeled cAMP conjugate is dispensed. The plate is incubated for 2 h at 4°C before it is read on a fluorescence polarization microplate reader. The amount of cAMP produced as a response to a test compound is compared to the production of cAMP resulting from stimulation with NDP-alpha-MSH.
On the technique in general: Polarisation of emitted light reports the rotation of a fluorescent probe.

For experiment [2], the target named is T1, hMC-4R. In words: hMC-4R membrane binding assay (fluorescence polarization, competition with fluorescence labeled NDP-alpha-MSH). The note with it: HEK293 cell membrane preparations expressing human melanocortin receptors; values grouped in classes. As to the method:
A membrane binding assay is used to identify competitive inhibitors of fluorescence labeled NDP-alpha-MSH binding to HEK293 cell membrane preparations expressing human melanocortin receptors.
The test compound or unlabeled NDP-alpha-MSH is dispensed at varying concentrations to a 384 well microtiter plate. Fluorescence labeled NDP-alpha-MSH is dispensed at a single concentration, followed by addition of membrane preparations. The plate is incubated for 5 h at room temperature.
The degree of fluorescence polarization is determined with a fluorescence polarization microplate reader.

What is called IC50 is the concentration that inhibits the measured activity by half. Low readings indicate inhibition by little substance, high ones a need for much substance.

T1 sequence (P32245 whole entry): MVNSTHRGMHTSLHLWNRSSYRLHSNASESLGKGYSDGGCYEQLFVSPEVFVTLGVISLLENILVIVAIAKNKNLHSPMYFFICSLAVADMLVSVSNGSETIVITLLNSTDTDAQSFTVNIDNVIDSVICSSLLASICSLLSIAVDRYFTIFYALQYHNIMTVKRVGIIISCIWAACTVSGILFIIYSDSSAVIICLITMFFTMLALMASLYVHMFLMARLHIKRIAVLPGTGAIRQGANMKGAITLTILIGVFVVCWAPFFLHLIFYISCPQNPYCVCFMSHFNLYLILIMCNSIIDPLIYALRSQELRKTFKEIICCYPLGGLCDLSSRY

In the case of `CC[C@H](COc1cccnc1C1CCN(C(=O)[C@@H](Cc2ccc(Cl)cc2Cl)NC(=O)OC2CCCC2)CC1)N(C)C` [Example 3], the “% activation functional assay” value on hMC-4R [1] is given as 0%. Further, at hMC-4R [2], the IC50 fell in the range of 0.1 to 1 µM.

Regarding `CCOC(=O)N[C@H](Cc1ccc(Cl)cc1Cl)C(=O)N1CCC(c2ncccc2OC[C@@H](CC)N(C)C)CC1` [Example 1], the “% activation functional assay” value at hMC-4R [1] was -6%. On hMC-4R [2], this compound displayed an IC50 of at most 0.1 µM.

As to `CCC(COc1cccnc1C1CCN(C(=O)C(Cc2ccc(Cl)cc2Cl)NC(=O)OC(C)C)CC1)N(C)C` (stereo not drawn) [Example 2], the “% activation functional assay” value on hMC-4R [1] was 4%. This compound showed an IC50 at hMC-4R [2] of at most 0.1 µM.
